Values of other authors in patent publication US9592230B2, “Substituted imidazoles as PDE10A inhibitors” (priority 2008, dated 2017).

Legend:
[1] = test system: amphetamine induced hyperactivity; details: rats
[2] = test system: cataleptic effect of the D2 receptor antagonist haloperidol; details: rats
[3] = test system: hyperactivity in rats induced by PCP

COc1ccc(Cc2nccc3cc(OC)c(OC)cc23)cc1OC [Papaverine, papaverine]
reduction of amphetamine induced hyperactivity [1]: insignificant | catalepsy on its own ([2]; alone): did not cause catalepsy on its own | effect on the cataleptic effect of haloperidol ([2]; together with haloperidol): potentiated the cataleptic effect | hyperactivity induced by PCP [3]: reduced hyperactivity
